The values that follow come from ChEMBL document CHEMBL1201862, “PubChem BioAssay data set” (2004).

Test systems include A498; A549; ACHN; HCC 2998; HCT-116; HCT-15; HOP-62; HOP-92; K562; KM12; MOLT-4; NCI-H460; NCI-H522; OVCAR-4; OVCAR-8; RPMI-8226; RXF 393; SK-MEL-28; SK-MEL-2; U-251.
Experiment in all cases: NCI tumour cell line growth inhibition, 48 h

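Assay format: 96-well plates, 48-hour exposure. The concentration for 50% growth inhibition is given as GI50.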 Active and inactive are the calls of the source. Rule as the data show it: active = GI50 up to about 1.1 µM and inactive = higher.

As for `CCCCCCCCCCCCCCCCCCOCC(O)COP(=O)(O)OCC1OC(n2cc(F)c(=O)[nH]c2=O)CC1O` (stereo not given), the GI50 in the experiment on A498 was 2.66 µM (inactive); in the experiment with A549, 0.51 µM (active); with ACHN it was 0.38 µM (active); in the experiment on HCC 2998 it was 0.0467 µM (active); in the experiment with HCT-116, 1.29 µM (inactive); with HCT-15 it was 10.8 µM. For the same compound, the GI50 with HOP-62 was 0.15 µM (active); in the experiment with HOP-92, 4.02 µM (inactive); with K562 it was 10.4 µM (inactive); in the experiment with KM12, 14.5 µM (inactive); in the experiment with MOLT-4, 3.02 µM (inactive); with NCI-H460, 0.678 µM (active). The GI50 in the experiment with NCI-H522 was 11.9 µM (inactive); in the experiment with OVCAR-4 it was 15.1 µM (inactive); with OVCAR-8, 1.64 µM (inactive); with RPMI-8226, 2.17 µM (inactive); in the experiment with RXF 393, 11.9 µM (inactive); in the experiment with SK-MEL-28 it was 14.1 µM (inactive). The GI50 is 21.4 µM (inactive) in the experiment with SK-MEL-2 and 1.75 µM (inactive) in the experiment with U-251.
For `COc1ccc(C2NC3=C(CCCC3)C3(C#N)C(=O)N=C(N)C23C#N)cc1` (stereo not given), the GI50 in the experiment on A498 is > 100 µM (inactive); with A549, > 100 µM (inactive); in the experiment with ACHN, > 100 µM (inactive); in the experiment on HCC 2998 it was > 100 µM (inactive); with HCT-116, > 100 µM (inactive); in the experiment on HCT-15, more than 100 µM. The GI50 in the experiment on HOP-62, with HOP-92, in the experiment on K562, in the experiment with KM12, with MOLT-4 and in the experiment on NCI-H460 was > 100 µM (inactive) in each case. Further, the GI50 in the experiment with NCI-H522, with OVCAR-4, in the experiment with OVCAR-8, with RPMI-8226, in the experiment on RXF 393 and in the experiment on SK-MEL-28 was > 100 µM (inactive) each time. In addition, the GI50 in the experiment with SK-MEL-2 and with U-251 was > 100 µM (inactive) throughout.
For `COC(=O)C1C2CC3C(OC(=O)C31)C2OC(=O)[C@](OC)(c1ccccc1)C(F)(F)F` (stereo not given in full), the GI50 in the experiment on A498 was > 100 µM (inactive); with A549, > 100 µM (inactive); in the experiment with ACHN, > 100 µM (inactive); in the experiment with HCC 2998, > 100 µM (inactive); with HCT-116, > 100 µM (inactive); with HCT-15 it was more than 100 µM. Besides, the GI50 in the experiment on HOP-62, with HOP-92, with K562, with KM12, with MOLT-4 and with NCI-H460 was > 100 µM (inactive) each time. The GI50 in the experiment on NCI-H522, in the experiment with OVCAR-4, in the experiment on OVCAR-8, in the experiment with RPMI-8226, in the experiment with RXF 393 and in the experiment on SK-MEL-28 was > 100 µM (inactive) each time. Besides, the GI50 with SK-MEL-2 and with U-251 was > 100 µM (inactive) throughout.
In the case of `NNC(=O)CC(=O)Nc1cccc(Cl)c1`, the GI50 in the experiment with A498 was > 100 µM (inactive); in the experiment on A549 it was > 100 µM (inactive); with ACHN, > 100 µM (inactive); in the experiment on HCC 2998, > 100 µM (inactive); in the experiment with HCT-116, > 100 µM (inactive); with HCT-15, more than 100 µM. Also, the GI50 is > 100 µM (inactive) in the experiment on HOP-62; 47.3 µM (inactive) in the experiment with HOP-92; > 100 µM (inactive) with K562; > 100 µM (inactive) in the experiment with KM12; > 100 µM (inactive) in the experiment with MOLT-4; > 100 µM (inactive) in the experiment on NCI-H460. Moreover, the GI50 with NCI-H522 is 25.4 µM (inactive); in the experiment on OVCAR-4, > 100 µM (inactive); in the experiment on OVCAR-8, > 100 µM (inactive); in the experiment on RPMI-8226, > 100 µM (inactive); in the experiment on RXF 393 it was > 100 µM (inactive); in the experiment on SK-MEL-28 it was > 100 µM (inactive). In addition, the GI50 in the experiment on SK-MEL-2 and in the experiment on U-251 was > 100 µM (inactive) in each case.
Regarding `C=C(Cl)[C@@](Cl)(CBr)CC[C@@H](Br)C(C)(C)Cl`, the GI50 in the experiment with A498 was 0.938 µM (active); in the experiment with A549, 1.43 µM (inactive); in the experiment with ACHN, 0.149 µM (active); with HCC 2998, 0.488 µM (active); in the experiment on HCT-116, 0.25 µM (active); with HCT-15, 0.759 µM. Also, the GI50 was 0.103 µM (active) in the experiment with HOP-62; 0.292 µM (active) with HOP-92; 0.473 µM (active) in the experiment with K562; 0.228 µM (active) with KM12; 22.9 µM (inactive) in the experiment on MOLT-4; 0.108 µM (active) in the experiment with NCI-H460. In addition, the GI50 in the experiment with NCI-H522 was 22.4 µM (inactive); in the experiment with OVCAR-4 it was 0.912 µM (active); with OVCAR-8, 0.466 µM (active); with RPMI-8226, 0.0566 µM (active); in the experiment on RXF 393 it was 0.126 µM (active); in the experiment with SK-MEL-28 it was 0.394 µM (active). The GI50 is 0.458 µM (active) with SK-MEL-2 and 0.154 µM (active) in the experiment with U-251.
For the compound `COC(=O)[C@@H]1C[C@H]([Se]c2ccccc2)CN1S(=O)(=O)c1ccc(C)cc1`, the GI50 was > 100 µM (inactive) in the experiment on A498; 51.8 µM (inactive) in the experiment on A549; > 100 µM (inactive) in the experiment with ACHN; > 100 µM (inactive) with HCC 2998; 67.3 µM (inactive) with HCT-116; more than 100 µM in the experiment with HCT-15. Further, the GI50 in the experiment on HOP-62 is > 100 µM (inactive); with HOP-92, > 100 µM (inactive); with K562, 34.7 µM (inactive); with KM12, 68.9 µM (inactive); in the experiment with MOLT-4, 35.7 µM (inactive); in the experiment on NCI-H460, > 100 µM (inactive). Besides, the GI50 with NCI-H522 was 38.9 µM (inactive); with OVCAR-4 it was 42.8 µM (inactive); in the experiment with OVCAR-8 it was > 100 µM (inactive); in the experiment on RPMI-8226 it was 59.4 µM (inactive); in the experiment with RXF 393, 39.4 µM (inactive); in the experiment on SK-MEL-28, 76.2 µM (inactive). The GI50 was 21.4 µM (inactive) in the experiment with SK-MEL-2 and 53 µM (inactive) with U-251.
For the compound `CC1(C)CC[C@]2(C(=O)O)CC[C@]3(C)C(=CC[C@@H]4[C@@]5(C)CC[C@H](OC6OC(CO)C(O)C(O)C6OC6OC(CO)C(O)C(O)C6O)C(C)(C)[C@@H]5CC[C@]43C)[C@@H]2C1` (stereo not given in full), the GI50 in the experiment on A498 is 18.5 µM (inactive); with A549, 18.3 µM (inactive); in the experiment on ACHN, 18.5 µM (inactive); with HCC 2998, 20.8 µM (inactive); in the experiment on HCT-116 it was 17.1 µM (inactive); in the experiment with HCT-15, 18 µM. The GI50 in the experiment on HOP-62 is 17.8 µM (inactive); with HOP-92 it was 17.6 µM (inactive); with K562, 19.8 µM (inactive); with KM12 it was 15.5 µM (inactive); in the experiment with MOLT-4, 22.5 µM (inactive); in the experiment with NCI-H460 it was 21 µM (inactive). For the same compound, the GI50 in the experiment on NCI-H522 was 20.6 µM (inactive); with OVCAR-4, 16.8 µM (inactive); with OVCAR-8, 19.4 µM (inactive); with RPMI-8226 it was 23.2 µM (inactive); in the experiment with RXF 393, 19.1 µM (inactive); in the experiment with SK-MEL-28 it was 14.6 µM (inactive). In addition, the GI50 in the experiment on SK-MEL-2 is 0.0509 µM (active); in the experiment with U-251, 2.38 µM (inactive).
Turning to `O=c1c2c(-c3ccccc3)c3ccccc3nc2cnn1-c1ccccc1`, the GI50 in the experiment on A498 is > 100 µM (inactive); in the experiment on A549, > 100 µM (inactive); with ACHN, > 100 µM (inactive); in the experiment on HCC 2998, > 100 µM (inactive); with HCT-116 it was > 100 µM (inactive); in the experiment with HCT-15, more than 100 µM. Also, the GI50 in the experiment on HOP-62 was > 100 µM (inactive); in the experiment with HOP-92, > 100 µM (inactive); with K562, 42.3 µM (inactive); in the experiment on KM12 it was 90.6 µM (inactive); in the experiment on MOLT-4, 96.2 µM (inactive); in the experiment with NCI-H460 it was > 100 µM (inactive). For the same compound, the GI50 in the experiment with NCI-H522 was 26.7 µM (inactive); with OVCAR-4, > 100 µM (inactive); in the experiment on OVCAR-8, > 100 µM (inactive); in the experiment on RPMI-8226, > 100 µM (inactive); with RXF 393 it was > 100 µM (inactive); with SK-MEL-28, > 100 µM (inactive). For the same compound, the GI50 in the experiment with SK-MEL-2 and in the experiment with U-251 was > 100 µM (inactive) each time.
As to `COc1cc(C[S+]2CCCC2)c(SC)cc1C[S+]1CCCC1`, the GI50 is > 100 µM (inactive) in the experiment on A498; > 100 µM (inactive) with A549; > 100 µM (inactive) in the experiment with ACHN; > 100 µM (inactive) in the experiment with HCC 2998; > 100 µM (inactive) in the experiment on HCT-116; more than 100 µM with HCT-15. Also, the GI50 in the experiment with HOP-62, in the experiment on HOP-92, with K562, with KM12, in the experiment with MOLT-4 and with NCI-H460 was > 100 µM (inactive) in each case. Also, the GI50 in the experiment on NCI-H522, with OVCAR-4, with OVCAR-8, with RPMI-8226, in the experiment with RXF 393 and in the experiment with SK-MEL-28 was > 100 µM (inactive) in each case. Moreover, the GI50 with SK-MEL-2 and in the experiment with U-251 was > 100 µM (inactive) each time.
Turning to `O=C1O[C@H]2[C@@H]3OC(=O)c4cc(O)c(O)c(O)c4-c4c(cc(O)c(O)c4O)C(=O)OC[C@H]2O[C@@H](OC(=O)c2cc(O)c(O)c(O)c2)[C@@H]3OC(=O)c2cc(O)c(O)c3c2[C@@H]2C1=CC(=O)C(O)(O)C2(O)O3` (stereo not given in full), the GI50 was 82.8 µM (inactive) in the experiment with A498; 25.9 µM (inactive) in the experiment on A549; 31.5 µM (inactive) with ACHN; 21 µM (inactive) with HCC 2998; 16.9 µM (inactive) with HCT-116; 21.9 µM with HCT-15. Moreover, the GI50 in the experiment with HOP-62 was 38.8 µM (inactive); in the experiment on HOP-92, 27.7 µM (inactive); in the experiment on K562 it was 29.6 µM (inactive); with KM12, 22.1 µM (inactive); with MOLT-4, 25.9 µM (inactive); in the experiment with NCI-H460, 33 µM (inactive). In addition, the GI50 was 28.1 µM (inactive) with NCI-H522; 15.2 µM (inactive) in the experiment on OVCAR-4; 19.5 µM (inactive) in the experiment on OVCAR-8; 38.3 µM (inactive) in the experiment with RPMI-8226; 36.5 µM (inactive) in the experiment on RXF 393; > 100 µM (inactive) in the experiment with SK-MEL-28. In addition, the GI50 in the experiment with SK-MEL-2 is 29.9 µM (inactive); with U-251, 15.6 µM (inactive).
